# From patent publication US20240190860A1, “8-CYCLO-SUBSTITUTED QUINAZOLINE DERIVATIVES AS LPA RECEPTOR 2 INHIBITORS” (CHIESI FARMACEUTICI S.p.A., priority 2021, published 2024)
# Biological target: T1, human recombinant LPA2 expressed in CHO cells (Homo sapiens, UniProt Q9HBW0)
# T1 construct: expressed in transfected cells; host or cells: CHO cells (CHO-hLPA2 cell line)
# Assay: FLIPR calcium mobilization assay, LPA2 antagonism in CHO-hLPA2 cells
# Assay type: cell-based
# Conditions: CHO-hLPA2 cells, inhibition of LPA EC80 Ca2+ response, 30 min pre-incubation; read-out: LPA2 IC50
# Procedure, shortened: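 CHO cells stably expressing human LPA2, loaded 30 min at 37° C with 5 μM Cal-520 AM plus 2.5 mM probenecid in HEPES buffer pH 7.4, then preincubated 30 min with antagonist (11-point series, 0.5% DMSO final). Challenged with LPA at EC80; baseline-subtracted peak FLIPR fluorescence converted to % inhibition and pIC50 by four-parameter logistic fit.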
# T1 sequence (Q9HBW0 whole entry): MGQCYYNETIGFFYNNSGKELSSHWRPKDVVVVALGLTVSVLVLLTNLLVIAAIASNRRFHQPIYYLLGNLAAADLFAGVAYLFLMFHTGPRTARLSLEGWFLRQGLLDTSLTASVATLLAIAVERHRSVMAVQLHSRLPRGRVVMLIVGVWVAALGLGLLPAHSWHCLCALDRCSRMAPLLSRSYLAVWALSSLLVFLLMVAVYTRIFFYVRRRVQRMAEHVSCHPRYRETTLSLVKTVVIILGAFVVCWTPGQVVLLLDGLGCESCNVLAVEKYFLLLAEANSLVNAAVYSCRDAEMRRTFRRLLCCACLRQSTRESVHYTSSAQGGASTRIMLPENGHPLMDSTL
row,SMILES,IC50
1,"Cc1nc2ccc(S(=O)(=O)N3CCN(C[C@H](C)Nc4ncnc5c(-c6cccnc6)cccc45)CC3)cc2s1 [Example 83, N-[(2S)-1-{4-[(2-methyl-1,3-benzothiazol-6-yl)sulfonyl]piperazin-1-yl}propan-2-yl]-8-(pyridin-3-yl)quinazolin-4-amine]",< 10 nM
2,"Cc1nc2ccc(S(=O)(=O)N3CCN(C[C@H](C)Nc4ncnc5c(-c6cccc(CN(C)C)c6)cccc45)CC3)cc2s1 [Example 84, 8-{3-[(dimethylamino)methyl]phenyl}-N-[(2S)-1-{4-[(2-methyl-1,3-benzothiazol-6-yl)sulfonyl]piperazin-1-yl}propan-2-yl]quinazolin-4-amine]",< 10 nM
3,"Cc1ccc(-c2cccc3c(N[C@@H](C)CN4CCN(S(=O)(=O)c5ccc(-c6cc(C)no6)s5)CC4)ncnc23)cn1 [Example 85, N-[(2S)-1-(4-{[5-(3-methyl-1,2-oxazol-5-yl)thiophen-2-yl]sulfonyl}piperazin-1-yl)propan-2-yl]-8-(6-methylpyridin-3-yl)quinazolin-4-amine]",< 10 nM
4,"Cc1nc(NC(=O)CN(C)C)sc1S(=O)(=O)N1CCN(C[C@H](C)Nc2ncnc3c(-c4cn(C)nc4C(F)(F)F)cccc23)CC1 [Example 86, 2-(dimethylamino)-N-[4-methyl-5-({4-[(2S)-2-({8-[1-methyl-3-(trifluoromethyl)-1H-pyrazol-4-yl]quinazolin-4-yl}amino)propyl]piperazin-1-yl}sulfonyl)-1,3-thiazol-2-yl]acetamide]",< 10 nM
5,"COC(=O)Nc1nc(C)c(S(=O)(=O)N2CCN(C[C@H](C)Nc3ncnc4c(-c5cncc(C=O)c5)cccc34)CC2)s1 [Example 87, methyl N-[5-({4-[(2S)-2-{[8-(5-formylpyridin-3-yl)quinazolin-4-yl]amino}propyl]piperazin-1-yl}sulfonyl)-4-methyl-1,3-thiazol-2-yl]carbamate]",< 10 nM
6,"C[C@@H](CN1CCN(S(=O)(=O)c2ccccc2)CC1)Nc1ncnc2c(-c3cn(C)nc3C(F)(F)F)cccc12 [Example 88, N-[(2S)-1-[4-(benzenesulfonyl)piperazin-1-yl]propan-2-yl]-8-[1-methyl-3-(trifluoromethyl)-1H-pyrazol-4-yl]quinazolin-4-amine]",10 to 100 nM
7,"COC(=O)Nc1nc(C)c(S(=O)(=O)N2CCN(C[C@H](C)Nc3ncnc4c(-c5cccc(CN(C)C)c5C)cccc34)CC2)s1 [Example 89, methyl N-[5-({4-[(2S)-2-[(8-{3-[(dimethylamino)methyl]-2-methylphenyl}quinazolin-4-yl)amino]propyl]piperazin-1-yl}sulfonyl)-4-methyl-1,3-thiazol-2-yl]carbamate]",< 10 nM
8,"COC(=O)Nc1nc(C)c(S(=O)(=O)N2CCN(C[C@H](C)Nc3ncnc4c(-c5cccc(CN(C)C)c5F)cccc34)CC2)s1 [Example 90, methyl N-[5-({4-[(2S)-2-[(8-{3-[(dimethylamino)methyl]-2-fluorophenyl}quinazolin-4-yl)amino]propyl]piperazin-1-yl}sulfonyl)-4-methyl-1,3-thiazol-2-yl]carbamate]",< 10 nM
9,"COC(=O)Nc1nc(C)c(S(=O)(=O)N2CCN(C[C@H](C)Nc3ncnc4c(-c5ccc(C)c(CN(C)C)c5)cccc34)CC2)s1 [Example 91, methyl N-[5-({4-[(2S)-2-[(8-{3-[(dimethylamino)methyl]-4-methylphenyl}quinazolin-4-yl)amino]propyl]piperazin-1-yl}sulfonyl)-4-methyl-1,3-thiazol-2-yl]carbamate]",< 10 nM
10,"COC(=O)Nc1nc(C)c(S(=O)(=O)N2CCN(C[C@H](C)Nc3ncnc4c(-c5ccc(C)nc5C)cccc34)CC2)s1 [Example 92, methyl N-[5-({4-[(2S)-2-{[8-(2,6-dimethylpyridin-3-yl)quinazolin-4-yl]amino}propyl]piperazin-1-yl}sulfonyl)-4-methyl-1,3-thiazol-2-yl]carbamate]",< 10 nM
